{"source": "paper PMC13095408", "about": "“DBeQ derivative targets vacuolar protein sorting 4 functions in cancer cells and suppresses tumor growth in mice” (The Journal of Pharmacology and Experimental Therapeutics, 2025)", "key": {"U2OS cells": {"system": "U2OS cells", "experiment": "Immunoblot analysis of VPS4- and VCP-mediated pathways (autophagy, ER stress, ERAD)", "type": "cell-based", "settings": "0.6 μM CB-5083, 1 μM 4-107, complete media; for ER stress (HSPA5, ATF4) / autophagy (SQSTM1, LC3-II): 5 μM DBeQ", "method": "Whole-cell lysates were prepared in radio-immunoprecipitation buffer (25 mM Tris-HCl, pH 8.0, 150 mM NaCl, 1 mM EDTA, 1% v/v IGEPAL CA-630, 0.5% w/v sodium deoxycholate, and 1% v/v SDS) containing protease (1:250) and phosphatase inhibitor cocktails (1:100) then resolved via SDS-PAGE and probed with the indicated antibodies. Signals were acquired with the Odyssey CLx (LI-COR) for fluorescence or Odyssey XF (LI-COR) for chemiluminescence detection and visualized in Image Studio version 6 (LI-COR).\nVPS4 is essential for autophagy and loss of VPS4 function inhibits autophagic flux ([Takahashi et al, 2018]; [Zhen et al, 2019]). Meanwhile, VCP is required for endoplasmic reticulum-associated degradation (ERAD; [Rabinovich et al, 2002]) where VCP inhibition results in the accumulation of ubiquitinated proteins and induction of ER stress ([Weihl et al, 2006]; [Bastola et al, 2016])."}, "VPS4B [1]": {"target": "T1, VPS4B (Homo sapiens, UniProt O75351)", "T1 sequence (O75351 1-444)": "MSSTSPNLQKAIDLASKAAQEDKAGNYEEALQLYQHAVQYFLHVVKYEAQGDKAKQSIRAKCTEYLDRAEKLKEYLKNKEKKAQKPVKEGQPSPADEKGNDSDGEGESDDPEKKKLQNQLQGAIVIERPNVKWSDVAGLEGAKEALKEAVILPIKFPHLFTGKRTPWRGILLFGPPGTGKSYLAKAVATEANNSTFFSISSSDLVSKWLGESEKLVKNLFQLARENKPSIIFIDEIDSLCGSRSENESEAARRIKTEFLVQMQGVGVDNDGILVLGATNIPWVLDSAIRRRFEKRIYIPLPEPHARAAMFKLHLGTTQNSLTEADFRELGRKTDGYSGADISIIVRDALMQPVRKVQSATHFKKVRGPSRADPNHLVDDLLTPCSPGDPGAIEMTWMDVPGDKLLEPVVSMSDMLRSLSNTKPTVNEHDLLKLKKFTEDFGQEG", "experiment": "VPS4B ATPase activity, EnzChek Phosphate assay", "type": "biochemical", "parameters": "His tag (pET28a vector-encoded) (N); made in house; host or cells: Escherichia coli BL21(DE3)", "method_in_brief": "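EnzChek phosphate release (MESG/PNP, 360 nm) with ATPases at 1 μM (diluted stock) in HEPES pH 7.4 buffers with MgCl2, CaCl2, DTT, BSA, Triton; 30 min compound preincubation at RT, started with MgATP, read 20 min at 37 °C. Activity from 5-min linear initial rate, normalized to DMSO; IC50 from Hill slope −1 fit.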"}, "[2]": {"system": "GFP-CHMP4B-expressing U2OS cells", "experiment": "GFP-CHMP4B accumulation cell-based assay (high-content microscopy)", "method_in_brief": "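GFP-CHMP4B U2OS cells were cultured overnight, stained, then treated in SM with compounds (0.1% DMSO or 0.1% DMSO/0.1% ethanol vehicle final). High-content imaging used a 20× NA .70 objective at set intervals, ≥300 cells/well over 3 fields/well.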"}, "VPS4B [3]": {"target": "T1, VPS4B", "experiment": "VPS4B cellular thermal shift assay (CETSA)", "type": "cell-based", "parameters": "endogenous in cells; host or cells: U2OS", "settings": "5 μM DBeQ, 1 hour, starved U2OS cells", "method": "The VPS4B CETSA was performed as previously described with modification ([Jafari et al, 2014]). In 10-cm dishes, near-confluent U2OS cells were rinsed with 1× DPBS and treated with the indicated compounds in acclimatized SM for 1 hour at 37 °C (0.1% DMSO). Cells were trypsinized, pelleted at 300 × g for 5 minutes, and washed with 1× PBS. After repeat pelleting at 300 × g for 5 minutes, the cells were resuspended in 1× PBS with protease inhibitor cocktail (1:250) and aliquoted into PCR strips with 20 μL per tube. PCR strips for each treatment were heated on a temperature gradient for 3 minutes using a thermal cycler (Bio-Rad Laboratories), followed by incubation at RT for 3 minutes. […] To normalize protein loading for SDS-PAGE, the soluble protein concentration of each 37 °C sample was quantified via the Pierce BCA assay ([…]), and a volume equal to 10 μg of protein was used for all samples from the same treatment. […] Signals were acquired with the Odyssey CLx (LI-COR) and quantified via densitometry using Image Studio version 6 (LI-COR). The remaining VPS4B levels were calculated by first obtaining the ratio of VPS4B:ACTB band intensities of each sample and then normalizing these ratios to that of the respective 37 °C sample. […]"}, "recombinant human VCP [4]": {"target": "T2, recombinant human VCP (Rattus norvegicus, UniProt P46462)", "T2 construct": "His (N); host or cells: Escherichia coli BL21(DE3)", "T2 sequence (P46462 2-806 limits assumed)": "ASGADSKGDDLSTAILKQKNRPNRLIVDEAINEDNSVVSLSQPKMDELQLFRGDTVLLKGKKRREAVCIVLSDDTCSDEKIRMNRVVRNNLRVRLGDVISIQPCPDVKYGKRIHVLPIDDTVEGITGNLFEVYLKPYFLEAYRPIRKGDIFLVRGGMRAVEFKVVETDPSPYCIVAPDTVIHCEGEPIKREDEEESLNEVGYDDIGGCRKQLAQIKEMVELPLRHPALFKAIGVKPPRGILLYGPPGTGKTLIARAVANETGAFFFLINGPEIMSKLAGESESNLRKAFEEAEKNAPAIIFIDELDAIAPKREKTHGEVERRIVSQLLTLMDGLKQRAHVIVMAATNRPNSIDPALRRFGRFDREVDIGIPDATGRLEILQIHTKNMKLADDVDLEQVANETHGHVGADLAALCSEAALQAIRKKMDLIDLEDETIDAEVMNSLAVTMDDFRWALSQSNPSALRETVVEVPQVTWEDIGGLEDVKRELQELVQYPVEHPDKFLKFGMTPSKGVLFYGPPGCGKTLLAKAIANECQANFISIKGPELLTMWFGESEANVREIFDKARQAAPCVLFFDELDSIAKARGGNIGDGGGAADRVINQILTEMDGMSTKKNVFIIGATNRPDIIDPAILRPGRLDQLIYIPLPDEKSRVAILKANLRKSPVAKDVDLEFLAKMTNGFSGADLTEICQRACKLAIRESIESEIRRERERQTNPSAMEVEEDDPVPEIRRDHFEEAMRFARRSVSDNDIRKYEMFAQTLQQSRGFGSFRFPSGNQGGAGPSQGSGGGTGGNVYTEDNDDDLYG", "experiment": "VCP ATPase activity, EnzChek Phosphate assay", "type": "biochemical", "settings": "screened at 5 µM; mean ± S.D., Supplemental Table 2", "method": "(§1) VPS4B and VCP ATPase activities were measured using the EnzChek Phosphate assay for the quantification of released phosphate. Assay buffers were based on literature precedents ([Cupido et al, 2019], [2021]) as follows: VPS4B buffer (20 mM HEPES-KOH, pH 7.4, 25 mM KOAc, 2 mM MgCl2, 5 mM (NH4)2SO4, 0.5 mM CaCl2, 2.5 mM DTT, 0.1 mg/mL BSA, 0.005% v/v Triton X-100), VCP buffer (20 mM HEPES-NaOH, pH 7.4, 20 mM NaCl, 10 mM MgCl2, 5 mM (NH4)2SO4, 0.5 mM CaCl2, 2.5 mM DTT, 0.1 mg/mL BSA, 0.005% v/v Triton X-100). In black clear-bottom 384-well plates, 22.5 μL of 5% DMSO or 40× test compounds diluted in the respective assay buffer was added to each well. ATPases were diluted to 1 μM in the respective buffers containing 2× EnzChek Phosphate assay coupling reagents of 400 μM MESG and 2 U of PNP, then 25 μL was added to each well. Plates were mixed at 1000 rpm for 30 minutes at RT while being protected from light. The reaction was initiated by adding 2.5 μL of 20 mM MgATP or water followed by mixing at 1200 rpm for 30 seconds at RT. Plates were measured at 360 nm using a CLARIOstar plate reader (BMG LABTECH) for 20 minutes at 37 °C. ATPase activity was calculated as the amount of phosphate released over a 5-minute interval under linear initial velocity conditions. The remaining ATPase activity was calculated by normalizing compound-treated activity values to the DMSO control. IC50 was calculated by fitting normalized values to a sigmoidal dose-response curve with Hill slope = −1 using Graph Pad Prism 10.0.\n(§2) To identify VPS4i, we developed enzyme- and cell-based VPS4 functional assays to serve as VPS4i-screening platforms. For the enzyme-based assay, we used the colorimetric EnzChek Phosphate assay that detects free phosphate with the advantage of continuous measurement of ATP hydrolysis over time. […] Due to the high sequence and structural similarity of AAA-ATPases, we also established a VCP ATPase assay to evaluate hit selectivity. […] For the cell-based assay, our approach was based on how VPS4 inhibition causes the accumulation of ESCRT-III ([Babst et al, 1998]; [Katoh et al, 2003]). We used an N-terminal GFP-tagged CHMP4B reporter system because it is the most abundant ESCRT-III subunit ([Katoh et al, 2004]; [Teis et al, 2008]). Our aim was to test compounds under short-term serum and amino acid starvation to stimulate ESCRT activity for easier detection of inhibitors ([Takahashi et al, 2018], [2019]). […] Overall, we established 2 systems for VPS4i screening, a VPS4B ATPase activity assay and a GFP-CHMP4B accumulation cell-based assay."}, "recombinant human VCP [5]": {"target": "T3, recombinant human VCP", "T3 construct": "His (N); host or cells: Escherichia coli BL21(DE3)", "T3 sequence (P46462 2-806 limits assumed)": "as above", "experiment": "VCP ATPase activity, EnzChek Phosphate assay", "type": "biochemical", "settings": "0.5 μM enzyme", "method": "as §1, §2"}, "[6]": {"system": "i-shVPS4A-expressing crVPS4B U2OS cells", "experiment": "VPS4 synthetic cell death in i-shVPS4A-expressing crVPS4B cells (YOYO-3)", "type": "cell-based", "settings": "1 μg/mL Dox; 20 μM z-VAD-fmk, 50 μM z-IETD-fmk", "method": "To measure caspase activity, cells cultured in white opaque-bottom 384-well plates were incubated in the presence or absence of 1 μg/mL Dox for 24 hours. Caspase-Glo 8 or 3/7 reagent was then added 1:1 and allowed to incubate for 90 minutes at RT followed by luminescence measurement using the CLARIOstar microplate reader (BMG LABTECH). Signals had background luminescence subtracted and then normalized to the respective Dox-untreated i-GFP-expressing parental controls to obtain relative CASP8-like LETDase or CASP3/7-like DEVDase activities. For live-cell quantification, the cells seeded on black clear-bottom 96-well plates were incubated with the indicated compounds (0.1% to 0.3% DMSO final) in the presence of 100 nM YOYO-3, a cell-impermeant DNA-binding fluorescent probe that stains membrane integrity-impaired, dead cells. […] Phase and fluorescence images were obtained at the indicated intervals using the IncuCyte S3 Live-Cell Analysis System (Essen BioScience; 10× objective) and then analyzed using the Cell-by-Cell Analysis module (Essen BioScience; 9600-0031) of IncuCyte S3 Software (Essen BioScience; Version 2019B Rev2). To quantify the percentage of dead GFP-expressing cells, the GFP and YOYO-3 double-positive cell population was divided by the total GFP-positive cell population. […]"}, "[7]": {"settings": "remaining ATPase activity, screened at 5 μM, mean ± SD, Table 1"}, "[8]": {"settings": "screened at 5 µM, mean ± S.D., Supplemental Table 2"}, "[9]": {"settings": "screened at 1 µM, mean ± S.D., Supplemental Table 2"}, "[10]": {"settings": "screened at 1 μM, starvation media, 1 hour, foci intensity per cell normalized to 4-107, mean ± SD, Table 1"}}}
{"molecule": "Cc1cc2c(C(N)=O)cccc2n1-c1nc2c(c(NCc3ccccc3)n1)COCC2", "note": "[CB-5083]", "values": [{"measurement": "accumulation of K48-linked polyubiquitinated proteins", "setting": "U2OS cells", "value": "accumulation of K48-linked polyubiquitinated proteins"}, {"measurement": "ER stress (HSPA5, ATF4)", "setting": "U2OS cells", "value": "strongly induced ER stress"}, {"measurement": "autophagy (SQSTM1, LC3-II)", "setting": "U2OS cells", "value": "reduction in SQSTM1, indicating the stimulation of autophagy"}]}
{"molecule": "c1ccc(CNc2nc(NCc3ccccc3)c3ccccc3n2)cc1", "note": "[DBeQ]", "values": [{"measurement": "IC50", "setting": "VPS4B [1]; 0.5 μM enzyme", "value": "3.9 ± 1.2", "unit": "µM"}, {"measurement": "VPS4B ATPase (% DMSO)", "setting": "VPS4B [1]; [7]", "value": "41.96 ± 7.53", "unit": "% DMSO"}, {"measurement": "VPS4B ATPase (% DMSO)", "setting": "VPS4B [1]; [8]", "value": "41.96 ± 7.53", "unit": "% DMSO"}, {"measurement": "accumulation of GFP-CHMP4B", "setting": "[2]; 2 and 5 μM DBeQ, starved cells, 2 hours", "value": "dose-dependent accumulation of GFP-CHMP4B"}, {"measurement": "GFP-CHMP4B (% 4-107)", "setting": "[2]; [9]", "value": "8.93 ± 3.51", "unit": "% 4-107"}, {"measurement": "GFP-CHMP4B (% 4-107)", "setting": "[2]; [10]", "value": "8.93 ± 3.51", "unit": "% 4-107"}, {"measurement": "change of VPS4B thermal stability (Tagg)", "setting": "VPS4B [3]", "value": "subtle thermal destabilization of VPS4B that was not statistically significant"}, {"measurement": "ER stress (HSPA5, ATF4)", "setting": "U2OS cells", "value": "mildly induced ER stress"}, {"measurement": "autophagy (SQSTM1, LC3-II)", "setting": "U2OS cells", "value": "time-dependently inhibited autophagy"}, {"measurement": "VCP ATPase (% DMSO)", "setting": "recombinant human VCP [4]", "value": "74.64 ± 6.01", "unit": "% DMSO"}, {"measurement": "IC50", "setting": "recombinant human VCP [5]", "value": "15.9 ± 4.9", "unit": "µM"}]}
{"molecule": "z-IETD-fmk", "values": [{"measurement": "rescue of VPS4 synthetic cell death", "setting": "[6]", "value": "partially rescued"}]}
{"molecule": "COc1cccc2c(NCc3ccc(F)cc3)nc(NCc3ccc(F)cc3)nc12", "note": "[Compound 22]", "values": [{"measurement": "VPS4B ATPase (% DMSO)", "setting": "VPS4B [1]; [7]", "value": "46.38 ± 2.33", "unit": "% DMSO"}, {"measurement": "VPS4B ATPase (% DMSO)", "setting": "VPS4B [1]; [8]", "value": "46.38 ± 2.33", "unit": "% DMSO"}, {"measurement": "GFP-CHMP4B (% 4-107)", "setting": "[2]; [9]", "value": "51.23 ± 26.20", "unit": "% 4-107"}, {"measurement": "GFP-CHMP4B (% 4-107)", "setting": "[2]; [10]", "value": "51.23 ± 26.20", "unit": "% 4-107"}, {"measurement": "VCP ATPase (% DMSO)", "setting": "recombinant human VCP [4]", "value": "99.33 ± 2.70", "unit": "% DMSO"}]}
{"molecule": "z-VAD-fmk", "values": [{"measurement": "rescue of VPS4 synthetic cell death", "setting": "[6]", "value": "partially rescued"}]}
